Results on 3 molecules are retold here after paper PMC10093841 (International Journal of Molecular Sciences, 2023).

Assay [1] is described as follows: Hydrogen peroxide scavenging assay (1,10-phenanthroline). Conditions: cell-free, concentration range 0–1000 μg/mL.
Procedure: Briefly, 0.25 mL of ferrous ammonium sulfate (1 mM) solution was mixed with 1.5 mL of different concentrations (from 6 to 500 μg/mL) of carvacrol, p-cymene; acid gallic was used as a positive control. Then, 62.5 µL of H2O2 (5 mM) was added and the mixture was incubated at room temperature in the dark for 5 min. Then, 1.5 mL of 1,10-phenanthroline (1 mM) was added to each tube, mixed, and incubated for 10 min at room temperature. Finally, the absorbance was measured at 510 nm through a spectrophotometer (Thermo Scientific Multiskan GO, Monza, Italy).
A further assay concerns AChE. Conditions: carvacrol stronger than its isomer thymol; cited from earlier work.
Assay [2] deals with caspase-3 in SH-SY5Y cells. Briefly: Caspase-3 expression (Western blot) in H2O2-induced stress. It is filed as cell-based, Human. Conditions: pretreatment 50 μg/mL for 22 h, then H2O2 100 or 200 μM for 2 h. The procedure: To investigate the neuroprotective effects of carvacrol and p-cymene on H2O2-induced stress in SH-SY5Y cells, the cells were assigned to a total of nine groups: Group 1: control (untreated cells); Groups 2 and 3, cells treated with H2O2 alone, at 100 and 200 μM for two h; Groups 4–5: cells treated with carvacrol or p-cymene MNTD (50 µg/mL) Groups 6–9: cells pretreated with carvacrol or p-cymene MNTD for 22 h and then exposed to H2O2 at 100 and 200 μM for another two h. After the cell lysis, we determined the caspase-3 activity. For caspase-3 activity analysis, the SH-SY5Y cells (1 × 10^4) were seeded in separate wells in 12-well plates (Corning, Inc., Corning, NY, USA). The cells were allowed to reach 70–80% confluency before the treatment groups were initiated. The cells were collected after 24 h and lysed using the Laemmli buffer to extract total proteins. For Western blot analysis, an aliquot of total protein was run on 10% SDS-PAGE gel and transferred to nitrocellulose. […] Immunoreactivity was detected through a sequential incubation with horseradish peroxidase-conjugated secondary antibody and enhanced chemiluminescence reagents. Each band density was measured using ImageJ software (WS Rasband, Image J, NIH, Bethesda, MD, USA).
(A western blot detects proteins with antibodies after separation by electrophoresis.)

Assay [3] deals with T1, acetylcholinesterase (AChE) type VI-S from Electrophorus electricus (Electrophorus electricus, UniProt O42275).
T1 construct: purchased Sigma-Aldrich
T1 sequence (O42275 24-633): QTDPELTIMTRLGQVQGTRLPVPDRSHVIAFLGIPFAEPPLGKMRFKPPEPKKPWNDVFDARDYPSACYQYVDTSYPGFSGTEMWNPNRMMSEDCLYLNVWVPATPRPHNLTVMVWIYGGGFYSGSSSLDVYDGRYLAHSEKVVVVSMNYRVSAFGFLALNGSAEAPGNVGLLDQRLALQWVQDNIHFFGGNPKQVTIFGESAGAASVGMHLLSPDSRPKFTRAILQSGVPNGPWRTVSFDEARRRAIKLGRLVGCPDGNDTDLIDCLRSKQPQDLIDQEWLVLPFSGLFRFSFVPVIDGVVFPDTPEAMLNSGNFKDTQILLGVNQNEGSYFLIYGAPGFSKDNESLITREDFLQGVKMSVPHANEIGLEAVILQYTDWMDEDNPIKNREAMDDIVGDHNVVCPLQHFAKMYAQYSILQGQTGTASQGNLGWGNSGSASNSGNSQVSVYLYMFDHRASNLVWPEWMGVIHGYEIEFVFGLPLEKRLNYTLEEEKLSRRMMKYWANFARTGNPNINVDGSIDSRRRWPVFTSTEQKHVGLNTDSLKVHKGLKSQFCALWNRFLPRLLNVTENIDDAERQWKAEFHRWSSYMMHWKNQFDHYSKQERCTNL
In words: Cholinesterase inhibition, Ellman's colorimetric method (AChE). Type of assay: biochemical. On the procedure: (§1) Anti-GAPDH antibody and enhanced chemiluminescence reagents were purchased from Santa Cruz Biotechnology (Santa Cruz, CA, USA); horseradish peroxidase-conjugated secondary antibody was purchased from Amersham Biosciences (Pittsburgh, PA, USA). Nitrocellulose was purchased from Biorad (Hercules, CA, USA).
(§2) The cholinesterase inhibition was evaluated by Ellman’s colorimetric method with some modifications. Briefly, in a total volume of 1 mL, 415 µL of Tris-HCl buffer 0.1 M (pH 8), 10 µL of a buffer solution of carvacrol or p-cymene (in methanol) at different concentrations (100, 10, 1 and 0.1 µg/mL), and 25 µL of a solution containing 0.28 U/mL of AChE (or BChE) were incubated for 15 min at 37 °C. […] The absorbance was measured at 405 nm in a spectrophotometer (Thermo Scientific Multiskan GO, Monza, Italy).
(§3) The percent inhibition of enzyme activity for acetylcholinesterase, butyrylcholinesterase, and α-amylase was calculated by comparison with the absorbance of the control without sample, following the formula: % = [(A0 − A1)/A0] × 100(1) where A0 is the absorbance of the control without the sample and A1 is the absorbance of the sample.
(In Ellman's method for cholinesterases, released thiocholine reacts with DTNB.)

The target of assay [4] is T2, butyrylcholinesterase (BChE) from equine serum (Equus caballus, UniProt P81908).
T2 construct: purchased Sigma-Aldrich; host or cells: equine serum
T2 sequence (P81908 whole entry): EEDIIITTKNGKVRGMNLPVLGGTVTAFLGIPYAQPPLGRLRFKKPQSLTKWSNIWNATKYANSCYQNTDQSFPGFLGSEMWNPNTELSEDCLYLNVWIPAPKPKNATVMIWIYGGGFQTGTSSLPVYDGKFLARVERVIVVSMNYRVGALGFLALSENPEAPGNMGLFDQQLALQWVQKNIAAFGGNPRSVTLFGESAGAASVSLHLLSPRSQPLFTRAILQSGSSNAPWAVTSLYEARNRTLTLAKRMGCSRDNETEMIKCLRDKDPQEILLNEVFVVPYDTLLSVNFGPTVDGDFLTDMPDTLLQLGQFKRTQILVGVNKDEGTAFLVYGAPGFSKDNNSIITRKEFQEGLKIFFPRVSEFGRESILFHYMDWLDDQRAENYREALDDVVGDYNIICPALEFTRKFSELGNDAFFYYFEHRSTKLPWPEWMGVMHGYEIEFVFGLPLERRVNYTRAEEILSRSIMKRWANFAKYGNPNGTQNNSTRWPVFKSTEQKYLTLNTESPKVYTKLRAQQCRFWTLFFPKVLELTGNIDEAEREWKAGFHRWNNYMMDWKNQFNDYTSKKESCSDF
In words: biochemical. The procedure: as §1, §2, §3

Assay [5] addresses T3, porcine pancreatic amylase (Sus scrofa, UniProt P00690).
T3 construct: purchased Sigma-Aldrich
Briefly: biochemical. The procedure:
as §1, §3

For another assay, the system named is BChE. Also on record: method as in doi:10.1007/s10068-015-0093-0. Conditions: at a concentration of 2 mg/mL; cited from earlier work.

Entries after “also recorded” stand apart in the source; their conditions may differ. Read-outs that look alike come from different tables or passages of the source.

T3 sequence (P00690 16-511): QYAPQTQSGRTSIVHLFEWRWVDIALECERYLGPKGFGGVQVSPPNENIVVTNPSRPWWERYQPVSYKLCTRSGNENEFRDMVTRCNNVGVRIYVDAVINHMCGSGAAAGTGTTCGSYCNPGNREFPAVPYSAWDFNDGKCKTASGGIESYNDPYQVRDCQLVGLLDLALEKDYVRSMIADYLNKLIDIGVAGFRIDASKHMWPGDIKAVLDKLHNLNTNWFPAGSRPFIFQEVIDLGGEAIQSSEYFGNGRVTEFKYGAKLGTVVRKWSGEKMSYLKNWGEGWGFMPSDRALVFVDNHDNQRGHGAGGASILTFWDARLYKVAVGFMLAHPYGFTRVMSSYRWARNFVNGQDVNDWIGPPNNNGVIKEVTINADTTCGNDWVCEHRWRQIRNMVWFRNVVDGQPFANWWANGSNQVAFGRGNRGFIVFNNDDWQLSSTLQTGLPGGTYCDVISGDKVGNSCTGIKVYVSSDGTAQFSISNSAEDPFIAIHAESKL

In the case of `Cc1ccc(C(C)C)cc1O` [Carvacrol], in assay [1], the H2O2 scavenging activity result is listed as “more active than p-cymene”. Further, in the assay with AChE, the “inhibitory effect relative to thymol” value was 10 times. For the same molecule, in assay [2], the caspase-3 expression result is “reduced; also recorded: caspase-3 was inhibited”. The IC50 in assay [3] was 25.3 µM; in assay [4] (concentration required to reduce the enzymatic activity by 50%, read-out: IC50 BChE (converted)) it was 218 µM; in assay [5] (read-out: IC50 α-Amylase (converted)) it was 1140 µM.

On to `Cc1ccc(C(C)C)c(O)c1` [Thymol], for which the “inhibition of BChE activity” value with BChE is 42.2%.

Take `Cc1ccc(C(C)C)cc1` [p-Cymene]: the values for the IC50 in assay [3], in assay [4] and in assay [5] were 113 µM, 10800 µM and 1600 µM, respectively.

For orientation: IC50 means the concentration that inhibits the measured activity by half.
